PMC9266004, “Potential Common Mechanisms of Cytotoxicity Induced by Amide Herbicides via TRPA1 Channel Activation” (International Journal of Environmental Research and Public …, 2022)
Read-outs that look alike come from different tables or passages of the source.

Key:
[1] = test system: A549 cells; assay: CCK-8 cell viability assay in WT A549 cells; assay type: cell-based, human; details: for viability of A549 cells compared with 0 μM AHs: 150, 300, 600, 1200 μM, 24 h; for viability of A549 cells compared with 0 μM AHs / IC50: CCK-8; for viability with HC-030031 pre-treatment compared with AHs treatment alone: A549 cells, HC-030031 50 μM, AHs 150, 300, 600 μM
Protocol: (§1) Wild-type (WT) and TRPA1-KO A549 cells were cultured in McCoy’s 5A Media and F-12K Nutrient Mixture containing 10% fetal bovine serum, respectively. WT/TRPA1-KO A549 cells (5 × 10^4 cells/mL) were seeded in 96-well (100 μL/well) and 6-well (2 mL/well) plates and incubated at 37 °C with 5% CO2 in a humidified incubator for 24 h. WT/TRPA1-KO A549 cells were treated with AHs gradient concentrations (0, 150, 300, 600, 1200 μM) prepared in methanol (1.2 M) for 24 h. […]
(§2) To conduct the cell viability assay, the growth medium was removed from WT/TRPA1-KO A549 cells cultured in a 96-well plate. CCK-8 reagent was mixed with complete medium (1:9 volume ratio), and 100 µL of the CCK-8 reagent mixture was added to each well. The plate was incubated for 4 h and the absorbance was measured at 450 nm using a microplate reader (BNR05740; Molecular Devices, Sunnyvale, CA, USA). The average absorbance from each sextuplicate set of wells was calculated and the background control value was subtracted from each absorbance value. The percentage cell viability was determined using the following equation:cell viability (%) = [(As − Ab)/(Ac − Ab)] × 100% where As is the absorbance of the experimental well (containing medium, CCK-8 reagent, cells, and compound); Ac is the absorbance of the control well (containing medium, CCK-8 reagent, and cells); and Ab is the absorbance of the blank well (containing medium and CCK-8 reagent).

[2] = test system: TRPA1-KO A549 cells; assay: CCK-8 cell viability assay in TRPA1-KO A549 cells; assay type: cell-based, human; details: for IC50: Homo sapiens, TRPA1-KO A549 cells, 24 h treatment, CCK-8, read-out: IC50 values of AHs, TRPA1-KO A549 Cells; for viability of TRPA1-KO A549 cells compared with AHs-treated WT cells: KO of TRPA1, AHs 150, 300, 600 μM
Protocol: (§3) The hTRPA1 gene sequence (Gene ID: 8989) was obtained from the National Center for Biotechnology Information (NCBI) website (https://www.ncbi.nlm.nih.gov/gene/8989 accessed on 26 May 2022). Three gRNA sequences, namely, T1: 5′-[…]-[…], T16: 5′-[…]-3′, and T20: 5′-[…]-3′, were designed using the CRISPR online design tool (http://crispr.mit.edu/ accessed on 26 May 2022). Transfection of cells with gRNA-Cas9 was validated in test cells. Cell pool examination was performed using Sanger sequencing. Sequencing and tracer analysis were performed using the online tool TIDE (https://tide-calculator.nki.nl/ accessed on 26 May 2022) to investigate the cleavage efficiency of T1, T16, and T20. Cells from the cell pool were diluted in 96-well plates. Clones were observed under a microscope and wells containing single cell clones were labeled. Single cell clones were transferred to 24-well plates for expansion. Validation of knockout (KO) clones was performed via sequencing to confirm insertion and deletion on the genomes of KO clone candidates. Furthermore, mycoplasmas were detected for cloned cells with high KO using the Mycoplasma PCR Detection Kit.
(§4) Wild-type (WT) and TRPA1-KO A549 cells were cultured in McCoy’s 5A Media and F-12K Nutrient Mixture containing 10% fetal bovine serum, respectively. WT/TRPA1-KO A549 cells (5 × 10^4 cells/mL) were seeded in 96-well (100 μL/well) and 6-well (2 mL/well) plates and incubated at 37 °C with 5% CO2 in a humidified incubator for 24 h. WT/TRPA1-KO A549 cells were treated with AHs gradient concentrations (0, 150, 300, 600, 1200 μM) prepared in methanol (1.2 M) for 24 h. Additionally, WT/TRPA1-KO A549 cells were pre-treated with TRPA1 special inhibitor HC-030031 (100 μM) for 0.5 h and then treated with AHs gradient concentrations for 24 h.
as §2

[3] = biological target: hTRPA1 ARD recombinant protein (Homo sapiens, UniProt O75762); assay: LSPR binding analysis (OpenSPR, COOH chip); details: at the analyte concentrations tested (up to 1000-2000 μM)
Sequence of hTRPA1 ARD recombinant protein (O75762 62-609): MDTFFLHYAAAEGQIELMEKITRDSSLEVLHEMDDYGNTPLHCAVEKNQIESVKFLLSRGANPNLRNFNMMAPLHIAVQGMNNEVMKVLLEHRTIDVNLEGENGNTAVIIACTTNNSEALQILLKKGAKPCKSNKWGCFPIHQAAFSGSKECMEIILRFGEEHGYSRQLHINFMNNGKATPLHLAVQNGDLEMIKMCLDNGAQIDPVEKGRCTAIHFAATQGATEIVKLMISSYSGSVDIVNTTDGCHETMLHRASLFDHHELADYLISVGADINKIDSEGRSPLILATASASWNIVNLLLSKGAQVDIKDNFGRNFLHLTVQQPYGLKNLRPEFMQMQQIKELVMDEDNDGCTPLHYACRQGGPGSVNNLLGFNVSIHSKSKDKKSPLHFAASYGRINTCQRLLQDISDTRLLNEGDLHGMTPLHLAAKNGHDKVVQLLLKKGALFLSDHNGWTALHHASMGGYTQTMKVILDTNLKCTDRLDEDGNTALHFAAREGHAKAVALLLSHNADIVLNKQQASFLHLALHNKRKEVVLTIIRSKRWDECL
Protocol: The binding capacity of hTRPA1 ARD recombinant protein and AHs was determined by LSPR according to the OpenSPR (Nicoya Life Sciences, Kitchener, ON, Canada) operating procedure using the COOH chip. After the baseline signal was obtained, the sample was washed with 200 µL 80% isopropyl alcohol for 10 s, and 200 µL ethylcarbodiimide/N-hydroxysuccinimide solution was added. The sample loop was rinsed with phosphate-buffered saline (PBS). hTRPA1 (5 µL) was diluted with PBS, incubated for 4 min, and 200 µL blocking solution was added. […] Contact and dissociation time of analytes and protein were 240 s and 160 s, respectively. TraceDrawer software was applied to determine the association constant (ka), dissociation constant (kd), and affinity constant (KD) using a 1:1 model.

[4] = test system: A549 cells; assay: LDH cytotoxicity assay; assay type: cell-based, human
Protocol: as §4
Using the Cytotoxicity LDH Assay Kit, lysis buffer (10 μL) was added to the high control well of a 96-well plate containing WT/TRPA1-KO A549 cells, which was then incubated for 0.5 h. Working solution was prepared by adding 5 mL assay buffer to the dye mixture vial, of which 100 μL was added to each well. The plate was protected from light and incubated at room temperature for 0.5 h. Subsequently, 50 μL stop solution was added to each well and the absorbance was measured immediately at 490 nm using a microplate reader (BNR05740, Molecular Devices). The average absorbance was calculated from each sextuplicate set of wells and the background control value was subtracted from each absorbance value. The percentage cytotoxicity was determined using the following equation:cytotoxicity (%) = [(Aa − Ab1)/(Ab2 − Ab1)] × 100% where Aa is the absorbance of the experimental well (containing medium, cells, and compound); Ab2 is the absorbance of the high control well (containing medium, cells, and lysis buffer); and Ab1 is the absorbance of the low control well (containing medium and cells).

[5] = test system: TRPA1 mRNA in A549 cells; assay: RT-qPCR of TRPA1 mRNA; assay type: cell-based, human; details: for TRPA1 mRNA expression with HC-030031 pre-treatment compared with AHs treatment alone: HC-030031 50 μM, AHs 150, 300, 600 μM; for expression of TRPA1 mRNA compared with 0 μM AHs: significant at one or more of 150, 300, 600 μM
Protocol: as §1
TRIzol Reagent (1 mL) was directly added to WT/TRPA1-KO A549 cells in 6-well plates and total RNA was extracted according to the manufacturer’s instructions. Total RNA was used for cDNA reverse transcription, which was performed according to the PrimeScript RT protocol with the following reaction conditions: 42 °C for 2 min, 4 °C for ∞ (removal of genomic DNA), 37 °C for 15 min, 85 °C for 5 s, and 4 °C for ∞ (reverse transcriptional reaction). RT-qPCR was performed according to the TB Green Premix Ex Taq II protocol. Primer sequences and product lengths were as follows: hTRPA1 (107 bp) forward primer 5′-[…]-3′, reverse primer 5′-[…]-3′; hβ-actin (184 bp) forward primer 5′-[…]-3′, reverse primer 5′-[…]-3′. RT-qPCR was performed using the CFX96 Real-Time System (Bio-Rad Laboratories, Hercules, CA, USA) using the following reaction conditions: 95 °C for 30 s, 40 cycles of 95 °C for 5 s, 60 °C for 30 s, and 72 °C for 30 s, followed by a melting curve from 65 to 95 °C in 0.5 °C/5 s increments. Calculations were performed using the CFX Manager^TM Version 1.0 software (Bio-Rad Laboratories Ltd., Hercules, CA, USA) and are represented as fold change in expression [2^ΔΔC(t)] on a linear scale.

[6] = test system: calcium influx in A549 cells; assay: Cellular calcium imaging (Fluo-4) in WT A549 cells; assay type: cell-based, human; details: for calcium influx compared with 0 μM AHs: A549 cells, 150, 300, 600, 1200 μM; for calcium influx with HC-030031 pre-treatment compared with AHs treatment alone: A549 cells, HC-030031 50 μM, AHs 150-1200 μM
Protocol: as §1
(§5) Working solution was prepared according to the instructions of the Fluo-4 Direct calcium assay kit and directly added to WT/TRPA1-KO A549 cells in 96-well plates, which were incubated for 0.5 h and kept away from light after removal from the incubator. Single channel fluorescein isothiocyanate (FITC) levels were measured using a confocal high-content imaging system (IXM-C S150069, Molecular Devices, San Jose, CA, USA).

[7] = test system: calcium influx in TRPA1-KO A549 cells; assay: Cellular calcium imaging (Fluo-4) in TRPA1-KO A549 cells; assay type: cell-based, human; details: AHs 150-1200 μM
Protocol: as §3, §4, §5

[8] = Homo sapiens, WT A549 cells, 24 h treatment, read-out: IC50 values of AHs, A549 Cells
[9] = WT A549 cells pre-treated with HC-030031 50 μM, then AHs 24 h, read-out: IC50 values of AHs, A549 Cells + HC-030031 50 μM

SMILES	viability of A549 cells compared with 0 μM AHs [1]	viability with HC-030031 pre-treatment compared with AHs treatment alone [1]	IC50 [1, 8] [µM]	IC50 [1, 9] [µM]	IC50 [2] [µM]	viability of TRPA1-KO A549 cells compared with AHs-treated WT cells [2]	binding between hTRPA1 and AHs (LSPR) [3]	cell damage (LDH) compared with 0 μM AHs ([4]; 150, 300, 600, 1200 μM, 24 h)	TRPA1 mRNA expression with HC-030031 pre-treatment compared with AHs treatment alone [5]	expression of TRPA1 mRNA compared with 0 μM AHs [5]	calcium influx compared with 0 μM AHs [6]	calcium influx with HC-030031 pre-treatment compared with AHs treatment alone [6]	calcium influx with KO of TRPA1 compared with AHs-treated WT cells [7]	cell damage (LDH) compared with 0 μM AHs [4]
CCc1cccc(CC)c1N(COC)C(=O)CCl [Alachlor, alachlor]	significantly decreased	significantly increased viability	565	731	659	significantly increased the viability	Obvious binding was not detected	significantly increased cell damage	significantly reduced	significantly increased	significantly increased	significantly decreased calcium influx	significantly decreased calcium influx	–
CCCCOCN(C(=O)CCl)c1c(CC)cccc1CC [Butachlor, butachlor]	significantly decreased	significantly increased viability	619	1760	767	significantly increased the viability	Obvious binding was not detected	–	significantly reduced	significantly increased	significantly increased	significantly decreased calcium influx	significantly decreased calcium influx	significantly increased cell damage
CCc1cccc(C)c1N(COC(C)C)C(=O)CCl [Propisochlor, propisochlor]	significantly decreased	albeit not significantly	564	1690	1830	significantly increased the viability	Obvious binding was not detected	significantly increased cell damage	albeit not significantly	significantly increased	significantly increased	significantly decreased calcium influx	significantly decreased calcium influx	–
CCOCN(C(=O)CCl)c1c(C)cccc1CC [Acetochlor, acetochlor]	significantly decreased	significantly increased viability	524	647	696	significantly increased the viability	Obvious binding was not detected	–	significantly reduced	significantly increased	significantly increased	significantly decreased calcium influx	significantly decreased calcium influx	–
